Measurements: PMC6348443 (Journal of Medicinal Chemistry, 2018)
Counter-ions that a name gives are not always drawn. Like-named read-outs stand apart in the source and are kept apart here.

Assays:
KOR [1] = biological target: T1, KOR (Homo sapiens, UniProt P41145); assay: [35S]GTPγS binding assay, CHO-hKOR membranes; type: biochemical; settings: for EC50: [35S]GTPγS, CHO human KOR membranes, read-out: KOR EC50; for Emax: relative to reference full agonist U69,593, read-out: KOR % stim.; for functional profile at KOR (full/partial agonist): partial agonist <85% of the response to U69,593
T1 construct: host or cells: CHO (CHO-hKOR)

DOR [2] = biological target: T2, DOR (Rattus norvegicus, UniProt P33533); assay: competition radioligand binding, rat brain membranes, [3H][Ile5,6]deltorphin II; settings: rat brain membranes; read-out: opioid receptor binding Ki DOR
T2 construct: Membranes were prepared from Sprague-Dawley rat brains or guinea-pig brains according to the described procedures; tissue Labortierkunde und Laborgenetik, Medizinische Universität Wien; host or cells: Sprague-Dawley rat brain without cerebella

DOR [3] = biological target: T3, DOR (Homo sapiens, UniProt P41143); assay: [35S]GTPγS binding assay, CHO-hDOR membranes; type: biochemical; settings: for EC50: [35S]GTPγS, CHO human DOR membranes; for Emax: relative to reference full agonist DPDPE, read-out: DOR % stim.; for functional profile at DOR (full/partial agonist): full agonist ≥85% of the response to DPDPE
T3 construct: host or cells: CHO (CHO-hDOR)

DOR [4] = biological target: T3, DOR; assay: competition radioligand binding, CHO cell membranes expressing human DOR, [3H]diprenorphine
Method: (§1) Membranes from CHO cells expressing human opioid receptors were prepared in 50 mM Tris-HCl buffer (pH 7.7) according to a previously described procedure.[64] Cells expressing human opioid receptors grown at confluence were removed from the culture plates by scraping, homogenized in 50 mM Tris buffer (pH 7.7), using a Polytron homogenizer, then centrifuged once and washed by an additional centrifugation at 27 000g for 15 min, at 4 °C. The final pellet was resuspended in Tris buffer and stored at −80 °C until use. Protein content of brain and cell membrane preparation homogenates was determined by the method of Bradford using bovine serum albumin as the standard.[65]
(§2) Rat brain membranes were incubated with either [^3H]DAMGO (1 nM, 45 min, 35 °C) or [^3H][Ile^5,6]deltorphin II (0.5 nM, 45 min, 35 °C) for labeling MOR or DOR receptors, respectively. Guinea-pig brain membranes were incubated with [^3H]U69,593 (1 nM, 30 min, 30 °C) for labeling KOR. Binding assays with CHO cell membranes were conducted at 25 °C for 60 min using [^3H]DAMGO (1 nM) or [^3H]diprenorphine (0.2 nM) for labeling MOR or DOR, respectively. Nonspecific binding was determined using 10 μM naloxone (rodent brain) or 1–10 μM of the unlabeled counterpart of each radioligand (CHO cells). Reactions were terminated by rapid filtration through Whatman glass fiber GF/C filters. Filters were washed three times with 5 mL of ice-cold 50 mM Tris-HCl buffer (pH 7.4) using a Brandel M24R cell harvester (Gaithersburg, MD). Radioactivity retained on the filters was counted by liquid scintillation counting using a Beckman Coulter LS6500 (Beckman Coulter Inc., Fullerton, CA). All binding experiments were performed in duplicate and repeated at least three times.
(§3) aDetermined in competition radioligand binding assays using CHO cell membranes expressing
(§4) human MOR and DOR. Values represent the mean ± SEM of three independent experiments each

MOR [5] = biological target: T4, MOR (Rattus norvegicus, UniProt P33535); assay: competition radioligand binding, rat brain membranes, [3H]DAMGO; settings: for Ki: rat brain membranes, read-out: opioid receptor binding Ki MOR; for increase in MOR binding affinity vs comparator: 17b vs 4b, 16a/b vs 7a/b, 22a/b vs 7a, 7b and 9b, 14a vs 14b
T4 construct: Membranes were prepared from Sprague-Dawley rat brains or guinea-pig brains according to the described procedures; tissue Labortierkunde und Laborgenetik, Medizinische Universität Wien; host or cells: Sprague-Dawley rat brain without cerebella

MOR [6] = biological target: T5, MOR (Homo sapiens, UniProt P35372); assay: [35S]GTPγS binding assay, CHO-hMOR membranes; type: biochemical; settings: for Emax: relative to reference full agonist DAMGO, read-out: MOR % stim.; for functional profile at MOR (full/partial agonist): full agonist ≥85% of the response to DAMGO
T5 construct: host or cells: CHO (CHO-hMOR)

MOR [7] = biological target: T5, MOR; assay: competition radioligand binding, CHO cell membranes expressing human MOR, [3H]DAMGO
Method: as §1, §2, §3, §4

KOR [8] = biological target: T6, KOR (Cavia porcellus, UniProt P41144); assay: competition radioligand binding, guinea-pig brain membranes, [3H]U69,593; settings: for Ki: guinea-pig brain membranes, read-out: opioid receptor binding Ki KOR
T6 construct: Membranes were prepared from Sprague-Dawley rat brains or guinea-pig brains according to the described procedures; tissue Labortierkunde und Laborgenetik, Medizinische Universität Wien; host or cells: guinea-pig brain without cerebella

male CD1 mice = assay: acetic acid-induced writhing assay after sc administration; type: in vivo, mouse; settings: for ED50: Mus musculus, 0.5 h, read-out: ED50 (95% CI), mice, sc, inhibition of writhing 30 min after drug administration
[9] = system: peripheral opioid receptors; assay: antagonism by naloxone methiodide in the acetic acid-induced writhing assay; type: in vivo, mouse; settings: sc co-administration with naloxone methiodide 1 mg/kg; agonist 50 or 200 μg/kg sc; 30 min
From the text: To determine whether targeted 6-amino acid and 6-dipeptide analogues inhibit writhing behavior in mice through peripheral opioid receptors activation, we used naloxone methiodide.[27]
Values are shown as mean of writhes ± SEM (n = 6–7 mice per group). ***P < 0.001 vs control group; ^#P < 0.05, ^##P < 0.01 and ^###P < 0.001 vs agonist treated group, ANOVA with Tukey’s post hoc test.
Writhing was induced in male CD1 mice by ip injection of a 0.6% acetic acid aqueous solution as described previously.[48],[62] Groups of mice were administered sc different doses of test compound or saline (control), and 5 min prior to testing (25 min after drug or saline), each animal received an ip injection of acetic acid solution. Each mouse was placed in individual transparent Plexiglas chambers, and the number of writhes was counted during a 10 min observation period. […] For the antagonism study, naloxone methiodide was sc co-administered with the respective opioid agonist, and writhing was assessed as described above.

[10] = [35S]GTPγS, CHO human MOR membranes, read-out: MOR EC50

`CO[C@@]12CC[C@@H](N[C@@H](CCC(=O)O)C(=O)O)[C@@H]3Oc4c(O)ccc5c4[C@@]31CCN(C)[C@@H]2C5.Cl.Cl` [Compound 14b, (2S)-2-[(4,5α-Epoxy-3-hydroxy-14β-methoxy-17-methylmorphinan-6β-yl)amino]pentanedioic Acid Dihydrochloride] showed an EC50 (KOR [1]) of 2230 ± 238 nM, an Emax (KOR [1]) of 76 ± 0.7% and a Ki (DOR [2]) of 7.64 ± 0.64 nM. For the same molecule, the “increased agonist potency at DOR vs MOR” value (DOR [3]; [35S]GTPγS EC50) was 2–4 times, the EC50 (DOR [3]) was 4.6 ± 1.79 nM and the Emax (DOR [3]) was 101 ± 3%. For the same molecule, the Ki (DOR [4]) was 18 ± 3.5 nM, the Ki (MOR [5]) was 11.6 ± 0.7 nM and the EC50 (MOR [6]; [10]) was 12.7 ± 4.7 nM. For the same molecule, the Emax (MOR [6]) was 98 ± 4%, the Ki (MOR [7]) was 28.7 ± 7.9 nM and the Ki (KOR [8]) was 1250 ± 70 nM.

`CO[C@@]12CC[C@H](N[C@H](Cc3ccccc3)C(=O)O)[C@@H]3Oc4c(O)ccc5c4[C@@]31CCN(C)[C@@H]2C5` [Compound 17a, (2R)-2-[(4,5α-Epoxy-3-hydroxy-14β-methoxy-17-methyl-morphinan-6α-yl)-amino]-3-phenylpropionic Acid Dihydrochloride] was tested, and the EC50 (KOR [1]) was 215 ± 32 nM, the “functional profile at KOR (full/partial agonist)” value (KOR [1]) was “full agonists” and the Emax (KOR [1]) was 80 ± 11%. For the same molecule, the Ki (DOR [2]) was 3.69 ± 0.59 nM, the ED50 (male CD1 mice) was < 0.02 mg/kg and the “ED50 (95% CI)” value (male CD1 mice; mice, inhibition of writhing 30 min after drug administration) was 18.1 (8.37–39.2) μg/kg. The EC50 (DOR [3]) was 8.36 ± 0.28 nM, the Emax (DOR [3]) was 95 ± 10% and the Ki (DOR [4]) was 5.26 ± 0.42 nM. For the same molecule, the Ki (MOR [5]) was 0.61 ± 0.01 nM, the EC50 (MOR [6]) was < 1 nM and the EC50 (MOR [6]; [10]) was 0.77 ± 0.24 nM. The Emax (MOR [6]) was 96 ± 4%, the Ki (MOR [7]) was 0.85 ± 0.01 nM and the Ki (KOR [8]) was 76.4 ± 9.3 nM.

In the case of `CO[C@@]12CC[C@@H](N[C@H](Cc3ccccc3)C(=O)O)[C@@H]3Oc4c(O)ccc5c4[C@@]31CCN(C)[C@@H]2C5` [Compound 17b, (2R)-2-[(4,5α-Epoxy-3-hydroxy-14β-methoxy-17-methyl-morphinan-6β-yl)-amino]-3-phenylpropionic Acid Dihydrochloride], the EC50 (KOR [1]) is reported as 611 ± 350 nM, the “functional profile at KOR (full/partial agonist)” value (KOR [1]) is reported as “full agonists” and the Emax (KOR [1]) is reported as 92 ± 10%. It also gave a Ki (DOR [2]) of 1.19 ± 0.13 nM, an ED50 (male CD1 mice) of 0.25 mg/kg and an EC50 (DOR [3]) of 1.71 ± 0.78 nM. For the same molecule, the Emax (DOR [3]) was 96 ± 1%, the Ki (DOR [4]) was 2.17 ± 0.26 nM and the Ki (MOR [5]) was 1.28 ± 0.38 nM. For the same molecule, the “increase in MOR binding affinity vs comparator” value (MOR [5]; rat brain) was “ca. 2 times”, the EC50 (MOR [6]) was < 1 nM and the EC50 (MOR [6]; [10]) was 0.68 ± 0.29 nM. The “functional profile at MOR (full/partial agonist)” value (MOR [6]) was “partial agonist”, the Emax (MOR [6]) was ~80% and the Ki (MOR [7]) was 1.84 ± 0.14 nM. For the same molecule, the Ki (KOR [8]) was 139 ± 23 nM.

With `CO[C@@]12CC[C@@H](N[C@H](C(=O)N[C@@H](Cc3ccc(O)cc3)C(=O)O)C(C)C)[C@@H]3Oc4c(O)ccc5c4[C@@]31CCN(C)[C@@H]2C5` [Compound 22b, (2S)-2-[[(4,5α-Epoxy-3-hydroxy-14β-methoxy-17-methylmorphinan-6β-yl)amino]-(2S)-3-methylbutyrylamino]-3-(4-hydroxyphenyl)propionic Acid] the EC50 (KOR [1]) was 1880 ± 594 nM, the Emax (KOR [1]) was 63 ± 0.1% and the Ki (DOR [2]) was 1.38 ± 0.22 nM. For the same molecule, the EC50 (DOR [3]) was 1.56 ± 0.83 nM, the “functional profile at DOR (full/partial agonist)” value (DOR [3]) was “full agonists” and the Emax (DOR [3]) was 89 ± 7%. The Ki (DOR [4]; CHO cell membranes expressing human DOR, read-out: Ki DOR) was 1.39 ± 0.13 nM, the KOR/MOR selectivity ratio (MOR [5]; from Ki, guinea-pig (KOR) and rat (MOR) brain) was 886 and the Ki (MOR [5]) was 0.44 ± 0.01 nM. The “increase in MOR binding affinity vs comparator” value (MOR [5]; rat brain) was 4 to 7 times, the “increased MOR potency than 1” value (MOR [6]; [35S]GTPγS EC50) was 24 times and the “selectivity for MOR over DOR” value (MOR [6]; [35S]GTPγS EC50) was 10 times. For the same molecule, the EC50 (MOR [6]; [10]) was 0.16 ± 0.06 nM, the “functional profile at MOR (full/partial agonist)” value (MOR [6]) was “partial agonists” and the Emax (MOR [6]) was ~70%. The Ki (MOR [7]; CHO cell membranes expressing human MOR, read-out: Ki MOR) was 0.64 ± 0.07 nM, the “lower KOR affinity vs 6α analogue 22a” value (KOR [8]; guinea-pig brain) was “about 6 times” and the Ki (KOR [8]) was 390 ± 49 nM.

For `CO[C@@]12CC[C@@H](NCC(=O)NCC(=O)O)[C@@H]3Oc4c(O)ccc5c4[C@@]31CCN(C)[C@@H]2C5` [Compound 23a, 2-[2-[(4,5-Epoxy-3-hydroxy-14β-methoxy-17-methylmorphinan-6β-yl)amino]acetylamino]acetic Acid], the EC50 (KOR [1]) was 885 ± 298 nM, the Emax (KOR [1]) was 75 ± 0.7% and the ED50 (male CD1 mice) was 0.104 mg/kg. For the same molecule, the “higher antinociceptive potency than morphine” value (male CD1 mice; writhing assay, mice) was 4 times, the EC50 (DOR [3]) was 2.84 ± 1.63 nM and the “functional profile at DOR (full/partial agonist)” value (DOR [3]) was “full agonist”. The Emax (DOR [3]) was 102 ± 7%, the “lower affinity at MOR vs 2a” value (MOR [5]; rat brain) was “about 5 times” and the EC50 (MOR [6]; [10]) was 4.39 ± 0.54 nM. The “functional profile at MOR (full/partial agonist)” value (MOR [6]) was “full agonist”, the Emax (MOR [6]) was 85 ± 9% and the “effect of naloxone methiodide on antinociceptive effect” value [9] was “antagonized”.
